Measured values published in patent publication EP1103270B1, “TREATMENT OF AUTOIMMUNE DISEASES IN MAMMALS” (UNIVERSIDAD COMPLUTENSE DE MADRID, priority 1999, dated 2000).

Legend:
TNFα [1] = assay: Production of TNFα in peritoneal murine macrophages stimulated with LPS, in vitro; format: cell-based
Description: (§1) • Figure 1 represents the production of TNFα by murine macrophages in culture (5x10^5 cells/ml) stimulated with 10ngr/ml of LPS in the presence or absence of 10^-8M of VIP or ACHPA during the course of 24 hours. • Figure 2 represents the production of TNFα by murine macrophages in culture (5x10^5 cells/ml) after 6 hours of culture with 10ngr/ml of LPS and to which 10^-8M of VIP or ACHPA are added at different times. • Figure 3 represents the production of IL-6 by murine macrophages in culture (5x10^5 cells/ml) stimulated with 10ngr/ml of LPS in the presence or absence of 10^-8M of VIP or ACHPA during the course of 24 hours. • Figure 4 represents the production of IL-6 by murine macrophages in culture (5x10^5 cells/ml) after 6 hours of culture with 10ngr/ml of LPS and to which 10^-8M of VIP or ACHPA are added at different times. • Figure 5 presents the Northern Blot analysis for the presence of mRNA of TNFα and IL-6 in macrophages stimulated with LPS in the presence or absence of VIP or ACHPA (18S represents the corresponding rRNA as total quality control of loaded RNA). • Figure 6 represents the survival in mice injected with 400µgr of LPS and, simultaneously, or after 30 minutes, 1 or 4 hours, with 5 nmol of VIP or ACHPA.
In experiments carried out "in vitro" VIP and ACHPA inhibit the production of TNFα in peritoneal murine macrophages stimulated with LPS. […]

TNFα [2] = assay: Circulating levels of TNFα in mice after injection of LPS; format: in vivo; conditions: 2 hours after injection of 25 µgr of LPS, simultaneous administration of 5 nmol
Description: In an experiment carried out with mice the circulating levels of TNFα 2 hours after injection of 25 µgr of LPS were approximately 4 ngr./ml. Simultaneous administration of 5 nmol of VIP or ACHPA reduced said levels by 60%.

IL-6 [3] = assay: Production of IL-6 in peritoneal murine macrophages stimulated with LPS, in vitro; format: cell-based
Description: In experiments carried out " in vitro" VIP and ACHPA inhibit the production of IL-6 in peritoneal murine macrophages stimulated with LPS. Most of the inhibition reaches values near to 90% and occurs with doses of stimulation of 10 µgr./ml of LPS. […] The inhibitory effect is also observed if the neuropeptides are added after stimulation with LPS, although the degree of inhibition is progressively smaller (see Figure 4).

IL-6 [4] = assay: Circulating levels of IL-6 in mice after injection of LPS; format: in vivo; conditions: two hours after injection of 25 µgr. of LPS, simultaneous administration of 5nmol
Excerpt: In an experiment carried out in mice the circulating levels of IL-6 two hours after injection of 25 µgr. of LPS were approximately 1.5 ngr./ml. The simultaneous administration of 5nmol of VIP or ACHPA reduced said levels by 60% and 75%, respectively.

mRNA of TNFα = assay: Northern Blot for mRNA of TNFα in macrophages activated with LPS; format: cell-based, rat; conditions: macrophages activated with LPS and exposed to the peptide; Figure 5
Description: as §1
(§2) Macrophages from rat were submitted to the experimental conditions described in examples 1 and 3 and their mRNA was isolated. […]

mRNA of IL-6 = assay: Northern Blot for mRNA of IL-6 in macrophages activated with LPS; format: cell-based, rat; conditions: macrophages activated with LPS and exposed to the peptide; Figure 5
Description: as §1, §2

[5] = Survival of mice injected with a lethal dose of LPS (endotoxic shock); format: in vivo; conditions: mice injected with 400µgr of LPS
Description: as §1
An experiment was carried out in which the long-term survival over a period of 4 days was studied for mice injected with 400µgr of LPS. […]

IL-4 producing cells = assay: Number of IL-4 producing cells (ELISPOT) in spleen and peritoneum of KLH-immunised mice; format: in vivo; conditions: 5 nmol/mouse with second KLH injection, spleen and peritoneum cells two weeks later
anti-KLH antibodies = assay: Isotype of serum anti-KLH antibodies (ELISA) in KLH-immunised mice; format: in vivo; conditions: 5 nmol/mouse with second KLH injection, serum two weeks after the last immunisation

With “adenylate cyclase hypophysary peptide activator [ACHPA]” the IC50 (TNFα [1]; peritoneal murine macrophages stimulated with LPS, read-out: IC50 (inhibition of the production of TNFα)) was 0.08 nM, the “greatest degree of inhibition of the production of TNFα” value (TNFα [1]; peritoneal murine macrophages, stimulation with 1-10 ngr./ml of LPS) was ~60% and the “reduction of circulating levels of TNFα” value (TNFα [2]) was 60%. The IC50 (IL-6 [3]; peritoneal murine macrophages stimulated with LPS, read-out: IC50 (inhibition of the production of IL-6)) was 0.0086 nM, the “inhibition of the production of IL-6 (most of the inhibition)” value (IL-6 [3]; peritoneal murine macrophages, stimulation with 10 µgr./ml of LPS) was ~90% and the “reduction of circulating levels of IL-6” value (IL-6 [4]) was 75%. The “transcripts for TNFα (Northern Blot)” value (mRNA of TNFα) was “absence of transcripts”, the “transcripts for IL-6 (Northern Blot)” value (mRNA of IL-6) was “absence of transcripts” and the survival rates ([5]; administration up to 1 hour after injection with LPS) was ~50%. For the same substance, the “survival at the end of the experiment” value ([5]; simultaneous administration of 5 nmol, period of 4 days) was 60%, the “increase in the number of IL-4 producing cells compared to untreated mice” value (IL-4 producing cells) was ~20 times and the “isotype of anti-KLH antibodies detectable in serum” value (anti-KLH antibodies) was “only of the IgGl isotype”.
